The values below come from patent USRE37781E1, “Substituted cyclic carbonyls and derivatives thereof useful as retroviral protease inhibitors” (DuPont Pharmaceuticals Company, priority 1991, dated 2002).

The first series concerns HIV-1 (RF) in MT-2 cells. Description: microbe, parasite or virus in culture. The class given is cell-based. As to conditions: HIV RNA assay, HIV-1 infected MT-2 cells; class symbols. Summed up: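 HIV-1 laboratory strains (RF, MN, IIIB) grown in H9 cells in RPMI 1640 with 5% FCS; infections in MT-2 cells. Viral RNA quantified by hybridization with biotinylated gag/pol capture probes on streptavidin plates and alkaline phosphatase-conjugated reporter probes; BH10 gag-pol in vitro transcripts serve as RNA standards.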
As to `O=C1N(Cc2cccc(Cl)c2)C(Cc2ccccc2)C(O)C(O)C(Cc2ccccc2)N1CC1CC1` (stereo not shown) [Example 6ZH], the 90% effect concentration (IC90) result was “+++ (+++=<10 μg/mL)”.
Take `O=C1N(Cc2cn(Cc3ccccc3)cn2)C(Cc2ccccc2)C(O)C(O)C(Cc2ccccc2)N1Cc1cn(Cc2ccccc2)cn1` (stereo not shown) [Example 6ZP]: the IC90 result is reported as “++ (++=10 to 100 μg/mL)”.

Still in this series, the particulars now being: Human immunodeficiency virus 1, MT2, HIV RNA assay, HIV-1 infected MT-2 cells; class symbols; read-out: IC90.
Turning to `COCCN1C(=O)N(CCOC)C(Cc2ccccc2)C(O)C(O)C1Cc1ccccc1` (stereo not shown) [Example 3N], the IC90 was more than 100 µg/mL.
The same measure, in the same setting: to `CC(C)(C)CCN1C(=O)N(CCC(C)(C)C)C(Cc2ccccc2)C(O)C(O)C1Cc1ccccc1` (stereo not shown) [Example 3P] belongs more than 100 µg/mL.
Same read-out and setting: the result for `CCOCCN1C(=O)N(CCOCC)C(Cc2ccccc2)C(O)C(O)C1Cc1ccccc1` (stereo not shown) [Example 3R] reads more than 100 µg/mL; that for `CCCCN1C(=O)N(Cc2ccccc2)C(Cc2ccccc2)C(O)C(O)C1Cc1ccccc1` (stereo not shown) [Example 3V], less than 10 µg/mL; that for `CC(C)=CCN1C(=O)N(Cc2ccccc2)C(Cc2ccccc2)C(O)C(O)C1Cc1ccccc1` (stereo not shown) [Example 3Y], less than 10 µg/mL.
Take `CCN1C(=O)N(Cc2ccccc2)C(Cc2ccccc2)C(O)C(O)C1Cc1ccccc1` (stereo not shown) [Example 4A]: the IC90 is less than 10 µg/mL.
On the same count and under the same terms, to `O=C1N(Cc2c(F)c(F)c(F)c(F)c2F)C(Cc2ccccc2)C(O)C(O)C(Cc2ccccc2)N1Cc1c(F)c(F)c(F)c(F)c1F` (stereo not shown) [Example 4J] belongs less than 10 µg/mL; to `O=C1N(Cc2ccc3ccccc3c2)C(Cc2ccccc2)C(O)C(O)C(Cc2ccccc2)N1CC1CC1` (stereo not shown) [Example 4K], less than 10 µg/mL.
Still for that read-out and setting: the result for `O=C1N(Cc2ccc3ccccc3c2)C(Cc2ccccc2)C(O)C(O)C(Cc2ccccc2)N1CC1CCCC1` (stereo not shown) [Example 4L] reads less than 10 µg/mL; that for `O=C1N(Cc2ccccc2)C(Cc2ccccc2)C(O)C(O)C(Cc2ccccc2)N1Cc1ccc2ccccc2c1` (stereo not shown) [Example 4M], less than 10 µg/mL.
On the same count and under the same terms, to `N#Cc1cccc(CN2C(=O)N(Cc3cccc(C#N)c3)C(Cc3ccccc3)C(O)C(O)C2Cc2ccccc2)c1` (stereo not shown) [Example 4P] belongs less than 10 µg/mL; to `C=CCN1C(=O)N(Cc2ccc3ccccc3c2)C(Cc2ccccc2)C(O)C(O)C1Cc1ccccc1` (stereo not shown) [Example 4S], less than 10 µg/mL.
As for `CCCCN1C(=O)N(Cc2ccc3ccccc3c2)C(Cc2ccccc2)C(O)C(O)C1Cc1ccccc1` (stereo not shown) [Example 4U], the IC90 is less than 10 µg/mL.
The same measure, in the same setting: the result for `O=C1NC(Cc2ccccc2)C(O)C(O)C(Cc2ccccc2)N1Cc1ccc2ccccc2c1` (stereo not shown) [Example 4V] reads less than 10 µg/mL.
On the same count and under the same terms, to `O=C1N(Cc2ccc3ccccc3c2)C(Cc2ccccc2)C(O)C(O)C(Cc2ccccc2)N1Cc1ccccn1` (stereo not shown) [Example 4Y] belongs less than 10 µg/mL; to `O=C1N(Cc2ccncc2)C(Cc2ccccc2)C(O)C(O)C(Cc2ccccc2)N1Cc1ccc2ccccc2c1` (stereo not shown) [Example 4Z], less than 10 µg/mL.

Test system in another series: not given
Experiment: not given
Conditions: not given
With `COCCN1C(=O)N(CCOC)C(Cc2ccccc2)C(O)C(O)C1Cc1ccccc1` (stereo not shown) [Example 3N], the melting point lay within 183 to 185 °C.
Still for that read-out and setting: to `CC(C)(C)CCN1C(=O)N(CCC(C)(C)C)C(Cc2ccccc2)C(O)C(O)C1Cc1ccccc1` (stereo not shown) [Example 3P] belongs 242 to 245 °C; to `CCOCCN1C(=O)N(CCOCC)C(Cc2ccccc2)C(O)C(O)C1Cc1ccccc1` (stereo not shown) [Example 3R], 148 to 150 °C; to `CCCCN1C(=O)N(Cc2ccccc2)C(Cc2ccccc2)C(O)C(O)C1Cc1ccccc1` (stereo not shown) [Example 3V], 89 to 91 °C.
Same read-out and setting: to `CC(C)=CCN1C(=O)N(Cc2ccccc2)C(Cc2ccccc2)C(O)C(O)C1Cc1ccccc1` (stereo not shown) [Example 3Y] belongs 173 to 174 °C; to `CCN1C(=O)N(Cc2ccccc2)C(Cc2ccccc2)C(O)C(O)C1Cc1ccccc1` (stereo not shown) [Example 4A], 190 to 193 °C; to `O=C1N(Cc2c(F)c(F)c(F)c(F)c2F)C(Cc2ccccc2)C(O)C(O)C(Cc2ccccc2)N1Cc1c(F)c(F)c(F)c(F)c1F` (stereo not shown) [Example 4J], 193 to 195 °C.
Still for that read-out and setting: to `O=C1N(Cc2ccc3ccccc3c2)C(Cc2ccccc2)C(O)C(O)C(Cc2ccccc2)N1CC1CC1` (stereo not shown) [Example 4K] belongs 175 to 178 °C.
Molecule `O=C1N(Cc2ccc3ccccc3c2)C(Cc2ccccc2)C(O)C(O)C(Cc2ccccc2)N1CC1CCCC1` (stereo not shown) [Example 4L] yielded a melting point of 89 to 92 °C.
Still for that read-out and setting: the result for `O=C1N(Cc2ccccc2)C(Cc2ccccc2)C(O)C(O)C(Cc2ccccc2)N1Cc1ccc2ccccc2c1` (stereo not shown) [Example 4M] reads 90 to 92 °C.
Still for that read-out and setting: to `N#Cc1cccc(CN2C(=O)N(Cc3cccc(C#N)c3)C(Cc3ccccc3)C(O)C(O)C2Cc2ccccc2)c1` (stereo not shown) [Example 4P] belongs 225 to 227 °C.
On to `C=CCN1C(=O)N(Cc2ccc3ccccc3c2)C(Cc2ccccc2)C(O)C(O)C1Cc1ccccc1` (stereo not shown) [Example 4S], for which the melting point lay in the range of 72 to 74 °C.
Same read-out and setting: the result for `CCCCN1C(=O)N(Cc2ccc3ccccc3c2)C(Cc2ccccc2)C(O)C(O)C1Cc1ccccc1` (stereo not shown) [Example 4U] reads 78 to 80 °C; that for `O=C1NC(Cc2ccccc2)C(O)C(O)C(Cc2ccccc2)N1Cc1ccc2ccccc2c1` (stereo not shown) [Example 4V], 210 to 213 °C; that for `O=C1N(Cc2ccc3ccccc3c2)C(Cc2ccccc2)C(O)C(O)C(Cc2ccccc2)N1Cc1ccccn1` (stereo not shown) [Example 4Y], 165 to 166 °C.
As for `O=C1N(Cc2ccncc2)C(Cc2ccccc2)C(O)C(O)C(Cc2ccccc2)N1Cc1ccc2ccccc2c1` (stereo not shown) [Example 4Z], the melting point was 118 to 121 °C.

In the next series the target is single-chain tethered dimer of HIV protease (Human immunodeficiency virus 1, UniProt P04585). Description: biochemical. The class given is biochemical.
Conditions: not given
The procedure:
HIV Protease Inhibition Assay—HPLC Method
Active protease was prepared as described therein by extraction with 67% acetic acid, dilution 33-fold with water, dialysis against water and then against a “refolding buffer” consisting of 20 mM MES, 1 mM dithiothreitol and 10% glycerol. Protease was stored as a stock preparation at 10 uM in refolding buffer.
Substrate: Peptide of sequence: aminobenzoyl-Ala-Thr-His-Gln-Val-Tyr-Phe(NO2)-Val-Arg-Lys-Ala containing p-nitrophenylalanine, was prepared by solid phase synthesis as previously described Cheng et al., op.cit. Stock solutions of 2 mM substrate were prepared in DMSO.
Inhibitory compounds were dissolved in sufficient DMSO to make 3 mM stock solutions. All further dilutions were prepared in “assay buffer”: 1M NaCl, 50 mM MES, pH 5.5, 1 mM EDTA, 1 mM DTT, […] glycerol.
Enzyme reaction: In a 2 ml screw-cap centrifuge tube were added 50 ul protease (final concentration 0.25 nM) and 0.1 ml inhibitory compound (final concentration […]). After 15 min preincubation at room temperature, the reaction was started with the addition of 0.05 ml substrate (final concentration 5 uM). Incubation was carried out at 30 C. for 1 hr. The reaction was stopped with 1 ml 0.1M ammonium hydroxide.
HPLC measurement of product formation: The product (aminobenzoyl-Ala-Thr-His-Gln-Val-Tyr) was separated from substrate on a Pharmacia MonoQ anion exchange column. The injection volume was 0.2 ml. The mobile phases were: A (20 mM trisHCl, pH 9.0, 0.02% sodium Azide, 10% acetonitrile), B (20 mM tris HCl, pH 9.0, 0.02% sodium azide, 0.5M ammonium formate, 10% acetonitrile). The mobile phases were pumped at 1 ml/min, with a gradient from 0 to 30% B in 5 min, 100% B for 4 min to wash the column, and a re-equilibration for 4 min. The retention time of the product was 3.6 min. Detection with a Shimadzu model RF535 fluorescence monitor was at 330 nm (excitation) and 430 (emission).
Take `COCCN1C(=O)N(CCOC)C(Cc2ccccc2)C(O)C(O)C1Cc1ccccc1` (stereo not shown) [Example 3N]: the Ki was 0.01 to 1 µM.
For `CC(C)(C)CCN1C(=O)N(CCC(C)(C)C)C(Cc2ccccc2)C(O)C(O)C1Cc1ccccc1` (stereo not shown) [Example 3P], the Ki was 0.01 to 1 µM.
Molecule `CCOCCN1C(=O)N(CCOCC)C(Cc2ccccc2)C(O)C(O)C1Cc1ccccc1` (stereo not shown) [Example 3R] gave a Ki of more than 1 µM.
Still for that read-out and setting: the result for `CCCCN1C(=O)N(Cc2ccccc2)C(Cc2ccccc2)C(O)C(O)C1Cc1ccccc1` (stereo not shown) [Example 3V] reads less than 0.01 µM; that for `CC(C)=CCN1C(=O)N(Cc2ccccc2)C(Cc2ccccc2)C(O)C(O)C1Cc1ccccc1` (stereo not shown) [Example 3Y], less than 0.01 µM.
The same measure, in the same setting: the result for `CCN1C(=O)N(Cc2ccccc2)C(Cc2ccccc2)C(O)C(O)C1Cc1ccccc1` (stereo not shown) [Example 4A] reads less than 0.01 µM.
Still for that read-out and setting: the result for `O=C1N(Cc2c(F)c(F)c(F)c(F)c2F)C(Cc2ccccc2)C(O)C(O)C(Cc2ccccc2)N1Cc1c(F)c(F)c(F)c(F)c1F` (stereo not shown) [Example 4J] reads more than 1 µM; that for `O=C1N(Cc2ccc3ccccc3c2)C(Cc2ccccc2)C(O)C(O)C(Cc2ccccc2)N1CC1CC1` (stereo not shown) [Example 4K], less than 0.01 µM.
The molecule `O=C1N(Cc2ccc3ccccc3c2)C(Cc2ccccc2)C(O)C(O)C(Cc2ccccc2)N1CC1CCCC1` (stereo not shown) [Example 4L] yielded a Ki of less than 0.01 µM.
On the same count and under the same terms, the result for `O=C1N(Cc2ccccc2)C(Cc2ccccc2)C(O)C(O)C(Cc2ccccc2)N1Cc1ccc2ccccc2c1` (stereo not shown) [Example 4M] reads less than 0.01 µM.
On the same count and under the same terms, to `N#Cc1cccc(CN2C(=O)N(Cc3cccc(C#N)c3)C(Cc3ccccc3)C(O)C(O)C2Cc2ccccc2)c1` (stereo not shown) [Example 4P] belongs less than 0.01 µM; to `C=CCN1C(=O)N(Cc2ccc3ccccc3c2)C(Cc2ccccc2)C(O)C(O)C1Cc1ccccc1` (stereo not shown) [Example 4S], less than 0.01 µM; to `CCCCN1C(=O)N(Cc2ccc3ccccc3c2)C(Cc2ccccc2)C(O)C(O)C1Cc1ccccc1` (stereo not shown) [Example 4U], less than 0.01 µM.
`O=C1NC(Cc2ccccc2)C(O)C(O)C(Cc2ccccc2)N1Cc1ccc2ccccc2c1` (stereo not shown) [Example 4V]: the Ki is less than 0.01 µM.
The molecule `O=C1N(Cc2ccc3ccccc3c2)C(Cc2ccccc2)C(O)C(O)C(Cc2ccccc2)N1Cc1ccccn1` (stereo not shown) [Example 4Y] gave a Ki of 0.01 to 1 µM.
For the molecule `O=C1N(Cc2ccncc2)C(Cc2ccccc2)C(O)C(O)C(Cc2ccccc2)N1Cc1ccc2ccccc2c1` (stereo not shown) [Example 4Z], the Ki was less than 0.01 µM.

The same series, now with this note: HIV protease inhibition; class symbols; read-out: Ki.
As for `O=C1N(Cc2cccc(Cl)c2)C(Cc2ccccc2)C(O)C(O)C(Cc2ccccc2)N1CC1CC1` (stereo not shown) [Example 6ZH], the Ki was less than 0.01 µM.
Still for that read-out and setting: to `O=C1N(Cc2cn(Cc3ccccc3)cn2)C(Cc2ccccc2)C(O)C(O)C(Cc2ccccc2)N1Cc1cn(Cc2ccccc2)cn1` (stereo not shown) [Example 6ZP] belongs more than 1 µM.
